Experiments:
Format in all cases: biochemical
human stromelysin (Sln) = human stromelysin (Sln) (Homo sapiens, UniProt P08254); test: In vitro MMP inhibition assay (hydrolysis of fluorogenic MCA peptide substrate), stromelysin; settings: Table 1; Ki,app; MCA peptide substrate 10 μM, 37° C., pH 7.5, 2% DMSO; read-out: Sin Ki
Protocol: The catalytic domain of human stromelysin (Sln) was obtained by expression and purification of a C-terminally truncated prostromelysin-1 from E. coli host BL21 (see Marcy et al. Biochem., 1991, 30, 6476). The subsequent activation of the mature form (Sln) was completed with 2 mM APMA for 1 hour at 37° C., followed by separation using a sizing column.
(§1) Assays were performed in assay buffer (50 mM Tricine pH 7.5, 200 mM sodium chloride, 10 mM calcium chloride, 0.5 mM zinc acetate containing 2% dimethyl sulfoxide (DMSO)) once the substrate and inhibitor were diluted into it. Stock solutions of inhibitors were prepared in 100% DMSO. Stock solutions of the substrate were prepared in 100% DMSO at a concentration of 6 mM.
(§2) The assay method was based on the hydrolysis of MCA-Pro-Leu-Gly-Leu-DPA-Ala-Arg-NH2 (American Peptide Co.) at 37° C. (see Knight, C. G. et al., FEBS, 1992, 296, 263-266). The fluorescence changes were monitored with a Perkin-Elmer LS-50B fluorimeter using an excitation wavelength of 328 nm and an emission wavelength of 393 nm. The substrate concentration used in the assays was 10 μM. The inhibitor was diluted into the assays from a solution in 100% DMSO, and controls substituted an equal volume of DMSO so that the final DMSO concentration from inhibitor and substrate dilution in all assays was 2%. […] Proper determination of steady-state rates of substrate cleavage required assay lengths of 60 minutes to allow for complete equilibration of the enzyme-inhibitor complex.
(§3) The Km for the MCA peptide substrate with the matrix metalloproteinases is quite high and exceeds its solubility under assay conditions. Consequently, the apparent Ki (Ki,app) was determined to describe the strength of inhibition. However, in this case, Ki,app would be essentially equal to Ki since [S]<<Km. For the determination of Ki,app, the concentration of the inhibitor was varied at a constant and low concentration of substrate and the steady-state rates of fluorescence change determined. In most cases absorptive quench due to the presence of ligand was not observed. For slow-binding inhibitors, onset of inhibition curves were collected for at least 45 minutes so that equilibrium was established. Steady-state rates of fluorescence change were obtained by fitting a curve to an equation for a single exponential decay containing a linear phase. The fitted value of the linear phase was taken as the steady-state rate. The steady-state rates were fitted to the Michaelis equation describing competitive inhibition by non-linear methods. Data resulting from tight-binding inhibition was analyzed, and Ki,app determined by fitting the data to the tight-binding equation of Morrison (Biochem. Biophys. Acta, vol. 185, pp. 269-286 (1969)) by non-linear methods.
(§4) All Ki values are in nM units.

[1] = target: human progelatinase A (GelA) (Homo sapiens, UniProt P08253); test: In vitro MMP inhibition assay (hydrolysis of fluorogenic MCA peptide substrate), gelatinase A; settings: Table 1; Ki,app; MCA peptide substrate 10 μM, 37° C., pH 7.5, 2% DMSO; read-out: Gel A
Sequence of human progelatinase A (GelA) (P08253 110-446 limits assumed): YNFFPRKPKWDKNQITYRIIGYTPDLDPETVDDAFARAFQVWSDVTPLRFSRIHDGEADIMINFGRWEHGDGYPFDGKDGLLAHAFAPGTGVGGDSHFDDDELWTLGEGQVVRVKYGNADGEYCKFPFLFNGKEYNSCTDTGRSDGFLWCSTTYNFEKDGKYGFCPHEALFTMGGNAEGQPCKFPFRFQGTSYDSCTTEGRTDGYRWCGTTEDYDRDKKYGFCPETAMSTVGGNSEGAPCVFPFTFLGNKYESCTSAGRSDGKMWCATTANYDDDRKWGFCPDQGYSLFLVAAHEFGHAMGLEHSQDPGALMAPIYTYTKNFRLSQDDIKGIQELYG
Protocol: The catalytic and fibronectin-like portion of human progelatinase A (GelA) was expressed as a fusion protein with ubiquitin in E. Coli. Assays were carried out on autocatalytically activated material.
as §1, §2, §3, §4

[2] = target: T1, human collagenase-3 (Coll3) (Homo sapiens, UniProt P45452); test: In vitro MMP inhibition assay (hydrolysis of fluorogenic MCA peptide substrate), collagenase-3; settings: Table 1; Ki,app; MCA peptide substrate 10 μM, 37° C., pH 7.5, 2% DMSO
T1 construct: catalytic domain liberated with APMA
Protocol: The propeptide and catalytic domain of human collagenase-3 (Coll3) was expressed in E. coli as an N-terminal fusion protein with ubiquitin. After purification of the fusion from inclusion bodies, the catalytic domain was liberated by treatment with 2 mM APMA at room temperature overnight. Final purification was completed using copper chelate chromatography.
as §1, §2, §3, §4

Sequence of human stromelysin (Sln) (P08254 100-272 limits assumed): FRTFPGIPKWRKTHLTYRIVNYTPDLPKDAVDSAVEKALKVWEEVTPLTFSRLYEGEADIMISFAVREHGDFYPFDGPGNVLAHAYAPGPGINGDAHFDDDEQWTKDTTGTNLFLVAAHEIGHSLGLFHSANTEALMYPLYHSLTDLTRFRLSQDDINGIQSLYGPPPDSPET

Ki (human stromelysin (Sln)) [µM] | Ki [1] [nM] | Ki [2] [nM] | Compound
4.85 | 351 | 661 | CSC(C)(C)[C@@H](NS(=O)(=O)c1ccc(Oc2ccccc2)cc1)C(=O)O [Example 6a, S-Methyl--N--[4-(phenoxy)benzenesulfonyl]-D-penicillamine]
17 | 215 | 696 | CSC(C)(C)[C@@H](NS(=O)(=O)c1ccc(Oc2ccc(Cl)cc2)cc1)C(=O)O [Example 6b, S-Methyl--N--[4-(4-chlorophenoxy)benzenesulfonyl]-D-penicillamine]
0.0022 | 0.069 | 0.067 | CSC(C)(C)[C@@H](NS(=O)(=O)c1ccc(Oc2ccccc2)cc1)C(=O)NO [Example 9a, 2(S)--N--Hydroxy-3-methyl-3-methylsulfanyl-2-[(4-phenoxybenzenesulfonyl)amino]butanamide]
0.038 | 0.75 | 1.6 | Cc1cc(CSC(C)(C)[C@@H](NS(=O)(=O)c2ccc(Sc3ccncc3)cc2)C(=O)NO)no1 [Example 10b, 2(S)--N-hydroxy-3-methyl-3-(5-methylisoxazol-3-yl)methylsulfanyl-2-[(4-{(pyrid-4-yl)sulfanyl}benzenesulfonyl)amino]butanamide]

More lines, now with the values behind:

Compound | Ki (human stromelysin (Sln)) [µM] | Ki [1] [nM] | Ki [2] [nM]
CC(C)(C)OC(=O)CSC(C)(C)[C@@H](NS(=O)(=O)c1ccc(Oc2ccc(F)cc2)cc1)C(=O)O [Example 3n, S--(t-Butoxycarbonyl)methyl--N--[4-(4-fluorophenoxy)benzenesulfonyl]-D-penicillamine] | 5.7 | 183 | 574
CC(C)(C)[C@@H](NS(=O)(=O)c1ccc(Oc2ccc(Cl)cc2)cc1)C(=O)O [Example 3p, N-[4-(4-Chlorophenoxy)benzenesulfonyl]-D-tert-leucine] | 9.5 | 62 | 203
CC(C)(C)[C@@H](NS(=O)(=O)c1ccc(Oc2ccc(F)cc2)cc1)C(=O)O [Example 3q, N-[4-(4-Fluorophenoxy)benzenesulfonyl]-D-tert-leucine] | 14 | 150 | 1180
CC(C)(C)[C@@H](NS(=O)(=O)c1ccc(Oc2ccccc2)cc1)C(=O)O [Example 3r, N-[4-Phenoxybenzenesulfonyl]-D-tert-leucine] | 12.7 | 104 | 616
CC(C)(SCc1ccccc1)[C@@H](NS(=O)(=O)c1ccc(Oc2ccncc2)cc1)C(=O)O [Example 4a, S-Benzyl--N--[4-(pyrid-4-yl)oxybenzenesulfonyl]-D-penicillamine] | 7.7 | 193 | 360
Cc1cc(CSC(C)(C)[C@@H](NS(=O)(=O)c2ccc(Sc3ccncc3)cc2)C(=O)O)no1 [Example 4c, S--[(5-Methylisoxazol-3-yl)methyl]--N--[4(pyrid-4-yl)sulfanylbenzenesulfonyl]-D-penicillamine] | 97 | 890 | 7000
CC(C)(C)[C@@H](NS(=O)(=O)c1ccc(Oc2ccccn2)cc1)C(=O)O [Example 4d] | 274 | 11000 | 27000
CC(C)(SCc1ccccn1)[C@@H](NS(=O)(=O)c1ccc(Oc2ccc(-c3ccoc3)cc2)cc1)C(=O)O [Example 4e, N-[4-(4-(Furan-3-yl)phenoxy)benzenesulfonyl]--S--[(pyrid-2-yl)methyl]-D-penicillamine] | 0.68 | 7.1 | 153
CC(C)(SCC(=O)O)[C@@H](NS(=O)(=O)c1ccc(Oc2ccc(F)cc2)cc1)C(=O)O [Example 5, S-Carboxymethyl--N--[4-(4-fluorophenoxy)benzenesulfonyl]-D-penicillamine] | 27.3 | 1550 | 1620
CC(C)(SCC(=O)O)[C@@H](NS(=O)(=O)c1ccc(Oc2ccc(F)cc2)cc1)C(=O)NO [Example 12, 2(S)--N-hydroxy-3-methyl-3-(carboxymethyl)sulfanyl-2-[(4-(4-fluorophenoxy)benzenesulfonyl)amino]butanamide] | 0.0057 | 0.53 | 0.27
